Experimental data published in ChEMBL document CHEMBL5291721, “A preclinical secondary pharmacology resource illuminates target-adverse drug reaction associations of marketed drugs” (Nat Commun, 2023).

Experiments:
[1] = molecular target: T1, Peroxisome proliferator-activated receptor gamma (Homo sapiens, UniProt P37231); type: functional
T1 sequence (P37231 whole entry): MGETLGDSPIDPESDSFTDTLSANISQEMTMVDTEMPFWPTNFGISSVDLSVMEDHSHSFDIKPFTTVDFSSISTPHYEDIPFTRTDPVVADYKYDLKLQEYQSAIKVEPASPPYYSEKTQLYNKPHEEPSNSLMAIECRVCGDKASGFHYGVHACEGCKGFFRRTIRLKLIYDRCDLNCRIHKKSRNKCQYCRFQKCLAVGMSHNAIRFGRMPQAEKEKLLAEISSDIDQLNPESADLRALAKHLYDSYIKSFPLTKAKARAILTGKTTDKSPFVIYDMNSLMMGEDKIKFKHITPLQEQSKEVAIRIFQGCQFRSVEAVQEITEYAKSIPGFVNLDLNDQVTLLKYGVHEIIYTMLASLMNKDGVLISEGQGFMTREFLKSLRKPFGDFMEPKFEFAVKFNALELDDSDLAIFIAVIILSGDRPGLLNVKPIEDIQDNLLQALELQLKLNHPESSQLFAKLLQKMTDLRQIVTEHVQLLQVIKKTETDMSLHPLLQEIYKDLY

[2] = molecular target: Epidermal growth factor receptor (Homo sapiens, UniProt P00533); type: functional
[3] = molecular target: T2, Muscarinic acetylcholine receptor M2 (Homo sapiens, UniProt P08172)
T2 sequence (P08172 whole entry): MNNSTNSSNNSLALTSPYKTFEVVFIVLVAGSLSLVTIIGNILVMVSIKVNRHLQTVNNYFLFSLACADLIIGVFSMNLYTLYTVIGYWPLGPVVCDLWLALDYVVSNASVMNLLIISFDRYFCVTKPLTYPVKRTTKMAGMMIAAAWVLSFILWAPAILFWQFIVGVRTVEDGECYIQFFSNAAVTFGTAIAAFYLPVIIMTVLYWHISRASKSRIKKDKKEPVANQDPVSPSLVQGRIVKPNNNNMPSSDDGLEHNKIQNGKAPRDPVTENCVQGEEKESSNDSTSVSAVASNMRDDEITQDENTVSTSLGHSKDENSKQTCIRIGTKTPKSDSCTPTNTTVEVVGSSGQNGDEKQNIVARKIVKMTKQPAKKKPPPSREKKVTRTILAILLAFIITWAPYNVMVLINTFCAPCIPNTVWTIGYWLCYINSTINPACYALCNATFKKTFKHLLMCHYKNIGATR

D(4) dopamine receptor = molecular target: T3, D(4) dopamine receptor (Homo sapiens, UniProt P21917)
T3 sequence (P21917 whole entry): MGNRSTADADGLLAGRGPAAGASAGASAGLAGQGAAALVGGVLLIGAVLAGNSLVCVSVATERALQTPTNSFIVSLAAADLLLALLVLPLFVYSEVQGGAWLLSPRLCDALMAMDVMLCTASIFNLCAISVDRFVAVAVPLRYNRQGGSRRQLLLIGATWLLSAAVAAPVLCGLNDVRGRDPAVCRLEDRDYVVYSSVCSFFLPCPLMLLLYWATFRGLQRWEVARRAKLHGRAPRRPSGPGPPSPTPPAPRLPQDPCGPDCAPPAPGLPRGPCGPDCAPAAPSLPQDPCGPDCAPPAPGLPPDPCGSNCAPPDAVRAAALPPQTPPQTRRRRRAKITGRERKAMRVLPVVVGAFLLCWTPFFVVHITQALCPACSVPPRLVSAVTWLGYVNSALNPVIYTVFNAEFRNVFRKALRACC

[4] = molecular target: T4, Endothelin receptor type B (Homo sapiens, UniProt P24530)
T4 sequence (P24530 whole entry): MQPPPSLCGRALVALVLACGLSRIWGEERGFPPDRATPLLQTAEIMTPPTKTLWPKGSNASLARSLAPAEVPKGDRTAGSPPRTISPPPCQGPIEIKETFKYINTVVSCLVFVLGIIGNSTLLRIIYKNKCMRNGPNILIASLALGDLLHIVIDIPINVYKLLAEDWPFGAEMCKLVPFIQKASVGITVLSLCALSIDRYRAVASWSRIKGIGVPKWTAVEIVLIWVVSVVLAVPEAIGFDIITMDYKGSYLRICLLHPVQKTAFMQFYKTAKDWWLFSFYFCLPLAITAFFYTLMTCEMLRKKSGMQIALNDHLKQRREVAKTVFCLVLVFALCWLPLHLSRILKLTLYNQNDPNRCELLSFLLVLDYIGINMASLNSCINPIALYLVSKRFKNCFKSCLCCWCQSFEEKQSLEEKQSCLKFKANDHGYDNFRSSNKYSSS

B1 bradykinin receptor = molecular target: T5, B1 bradykinin receptor (Homo sapiens, UniProt P46663)
T5 sequence (P46663 whole entry): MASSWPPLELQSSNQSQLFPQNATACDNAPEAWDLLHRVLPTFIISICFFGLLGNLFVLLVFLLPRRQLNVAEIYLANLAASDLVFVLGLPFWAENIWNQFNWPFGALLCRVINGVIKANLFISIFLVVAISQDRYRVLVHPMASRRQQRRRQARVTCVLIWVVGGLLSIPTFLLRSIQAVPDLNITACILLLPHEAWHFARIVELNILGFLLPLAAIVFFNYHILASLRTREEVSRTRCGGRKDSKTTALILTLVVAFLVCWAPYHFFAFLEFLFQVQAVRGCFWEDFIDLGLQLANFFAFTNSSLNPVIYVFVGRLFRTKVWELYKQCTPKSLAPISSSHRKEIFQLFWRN
Further: assay procedure not described here.

Epidermal growth factor receptor, sequence (P00533 whole entry): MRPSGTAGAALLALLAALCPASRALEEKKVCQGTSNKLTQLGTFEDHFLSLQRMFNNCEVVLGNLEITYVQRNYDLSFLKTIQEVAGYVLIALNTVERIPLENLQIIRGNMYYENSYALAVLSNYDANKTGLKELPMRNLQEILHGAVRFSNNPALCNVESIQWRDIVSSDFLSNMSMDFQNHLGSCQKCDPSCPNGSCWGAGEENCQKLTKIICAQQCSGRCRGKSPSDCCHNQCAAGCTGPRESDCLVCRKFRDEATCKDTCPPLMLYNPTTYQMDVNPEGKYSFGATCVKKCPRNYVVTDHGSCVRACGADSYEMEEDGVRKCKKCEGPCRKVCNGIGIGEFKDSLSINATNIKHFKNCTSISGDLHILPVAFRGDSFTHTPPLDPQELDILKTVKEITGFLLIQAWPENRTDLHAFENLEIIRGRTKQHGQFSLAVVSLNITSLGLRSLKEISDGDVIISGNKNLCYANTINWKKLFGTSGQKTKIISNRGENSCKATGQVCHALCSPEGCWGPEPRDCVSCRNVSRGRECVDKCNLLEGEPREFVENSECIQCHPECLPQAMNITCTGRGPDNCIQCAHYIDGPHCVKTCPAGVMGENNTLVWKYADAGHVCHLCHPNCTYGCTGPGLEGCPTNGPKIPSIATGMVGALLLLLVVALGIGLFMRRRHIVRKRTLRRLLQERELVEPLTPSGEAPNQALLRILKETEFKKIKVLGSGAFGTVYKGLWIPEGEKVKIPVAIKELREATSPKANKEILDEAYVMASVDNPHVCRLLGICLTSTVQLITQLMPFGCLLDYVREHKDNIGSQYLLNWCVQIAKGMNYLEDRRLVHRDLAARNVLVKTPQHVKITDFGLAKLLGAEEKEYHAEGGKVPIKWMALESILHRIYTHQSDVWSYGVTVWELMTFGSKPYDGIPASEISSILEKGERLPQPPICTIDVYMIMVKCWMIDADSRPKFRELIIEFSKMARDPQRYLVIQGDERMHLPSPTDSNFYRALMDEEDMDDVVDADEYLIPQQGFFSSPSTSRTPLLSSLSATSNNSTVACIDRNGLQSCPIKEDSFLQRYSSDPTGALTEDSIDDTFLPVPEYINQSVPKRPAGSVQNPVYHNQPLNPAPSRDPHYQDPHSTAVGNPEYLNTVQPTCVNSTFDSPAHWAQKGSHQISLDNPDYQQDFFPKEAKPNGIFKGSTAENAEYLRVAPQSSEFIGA

| Structure (SMILES) | AC50 [1] | AC50 [2] | AC50 [3] | AC50 (D(4) dopamine receptor) | AC50 [4] | AC50 (B1 bradykinin receptor) |
| --- | --- | --- | --- | --- | --- | --- |
| COc1ccc(CC(C)(C)NC[C@H](O)c2cc(O)cc3c2OCC(=O)N3)cc1 [OLODATEROL] | > 30 µM | > 30 µM |  |  |  |  |
| CCOC(=O)[C@H](CCc1ccccc1)N[C@@H](C)C(=O)N1[C@H](C(=O)O)C[C@@H]2CCC[C@@H]21 |  |  | > 10 µM | > 10 µM | > 30 µM | > 30 µM |
| CC(C)C[C@H]1C(=O)N2CCC[C@H]2[C@]2(O)O[C@](NC(=O)[C@@H]3C=C4c5cccc6[nH]c(Br)c(c56)C[C@H]4N(C)C3)(C(C)C)C(=O)N12 [BROMOCRIPTINE] | > 30 µM | > 30 µM | > 10 µM |  | > 30 µM | > 30 µM |
| COCCCN1CCC(NC(=O)c2cc(Cl)c(N)c3c2OCC3)CC1 [PRUCALOPRIDE] | > 30 µM |  |  |  |  |  |
| C[C@@H](O)[C@H]1C(=O)N2C(C(=O)O)=C(S[C@@H]3CN[C@H](C(=O)N(C)C)C3)[C@H](C)[C@H]12 [MEROPENEM] | > 300 µM | > 300 µM |  |  |  |  |
| Cc1cn([C@H]2C[C@H](N=[N+]=[N-])[C@@H](CO)O2)c(=O)[nH]c1=O [ZIDOVUDINE] |  |  | > 10 µM | > 10 µM | > 30 µM | > 30 µM |
| CN(C)CCC(c1ccc(Cl)cc1)c1ccccn1 (centres undefined) [CHLORPHENIRAMINE] |  |  | 5.52 µM | > 10 µM | > 30 µM | > 30 µM |
| N[C@@H]1[C@H]2CN(c3nc4c(cc3F)c(=O)c(C(=O)O)cn4-c3ccc(F)cc3F)C[C@@H]12 [TROVAFLOXACIN] | > 30 µM |  |  |  |  |  |
| c1cnc(N2CCN(Cc3ccc4c(c3)OCO4)CC2)nc1 [PIRIBEDIL] | > 30 µM | > 30 µM |  |  |  |  |
| CCCN1C[C@H](CSC)C[C@@H]2c3cccc4[nH]cc(c34)C[C@H]21 [PERGOLIDE] | > 30 µM | > 30 µM | > 10 µM |  | > 30 µM | > 30 µM |
| Cc1c(C(=O)NN2CCCCC2)nn(-c2ccc(Cl)cc2Cl)c1-c1ccc(Cl)cc1 [RIMONABANT] | > 30 µM | > 30 µM |  | > 10 µM | > 30 µM | > 30 µM |
| CN(C)CCC=C1c2ccccc2C(C)(C)c2ccccc21 | > 30 µM | > 30 µM |  |  |  |  |
| CC1=C(C(=O)O)N2C(=O)[C@@H](NC(=O)[C@H](N)c3ccccc3)[C@H]2SC1 [CEPHALEXIN ANHYDROUS] |  |  |  | > 10 µM | > 30 µM | > 30 µM |
| O=C(OCC(O)CO)c1ccccc1Nc1ccnc2cc(Cl)ccc12 (centres undefined) [GLAFENINE] | > 30 µM | > 30 µM |  |  |  |  |
| C[C@H]1CNCCc2ccc(Cl)cc21 [LORCASERIN] | > 30 µM | > 30 µM |  |  |  |  |
